Data published in patent US9211310B2, “Use of a Chinese medicine composition in preparing medicaments for treating secondary prevention of myocardial infarction” (TASLY PHARMACEUTICAL GROUP CO., LTD, priority 2010, dated 2015).

Test system: patients after acute myocardial infarction
Test: TCM symptom score, total and single (chest pain, chest tightness, short breath, fatigue, palpitation, spontaneous perspiration, pale complexion), same clinical trial
Assay type: in vivo, human
Design: total score of TCM symptom, Mean / total score of TCM symptom, Min / total score of TCM symptom, Max / total score of TCM symptom, Md / change of total score of TCM symptom, Mean / change of total score of TCM symptom, Max / change of total score of TCM symptom, Md: scale not given here
Conditions: PP
From the text: 3508 patients who were in accordance with the diagnostic standards of AMI for 28 days to 2 years and differentiated as Qi deficiency and blood stagnation syndrome by TCM were studied. 0.5 g Chinese medicine composition prepared by the method of EXAMPLE 1 (Coded as QSYQ) was administrated half an hour after meal, 3 times per day.
They included the overall survival time, angina pectoris score, TCM symptom score and life quality score, where angina pectoris score, TCM symptom score and life quality score were evaluated at randomization, in 1st, 3rd, 6th, 9th, 12th month after treatment and 18th month after follow-up.
The analysis method referred to the angina pectoris score.

[1] = 3 months after treatment-baseline
[2] = 6 months after treatment-baseline

SMILES: CC(=O)Oc1ccccc1C(=O)O [Control group, aspirine]
- change of short breath 2, number of patients [1]: 309
- change of short breath 4, % of patients [1]: (2.36%)
- change of short breath 4, number of patients [1]: 34
- change of short breath 6, % of patients [1]: (0.55%)
- change of short breath 6, number of patients [1]: 8
- change of short breath −2, % of patients [1]: (5.27%)
- change of short breath −2, number of patients [1]: 76
- change of short breath −4, % of patients [1]: (0.14%)
- change of short breath −4, number of patients [1]: 2
- change of short breath −6, % of patients [1]: (0.00%)
- change of short breath −6, number of patients [1]: 0
- change of spontaneous perspiration 0, number of patients [1]: 898
- change of spontaneous perspiration 0, percent of patients [1]: (62.23%)
- change of spontaneous perspiration 1, number of patients [1]: 342
- change of spontaneous perspiration 1, percent of patients [1]: (23.70%)
- change of spontaneous perspiration 2, number of patients [1]: 71
- change of spontaneous perspiration 2, percent of patients [1]: (4.92%)
- change of spontaneous perspiration 3, number of patients [1]: 16
- change of spontaneous perspiration 3, percent of patients [1]: (1.11%)
- change of spontaneous perspiration −1, number of patients [1]: 101
- change of spontaneous perspiration −1, percent of patients [1]: (7.00%)
- change of spontaneous perspiration −2, number of patients [1]: 13
- change of spontaneous perspiration −2, percent of patients [1]: (0.90%)
- change of spontaneous perspiration −3, number of patients [1]: 2
- change of spontaneous perspiration −3, percent of patients [1]: (0.14%)
- distribution of total score of TCM symptom: Medium, number of patients (6 months after treatment): 377
- distribution of total score of TCM symptom: Medium, percentage of patients (6 months after treatment): (26.40%)
- distribution of total score of TCM symptom: Mild, number of patients (6 months after treatment): 1044
- distribution of total score of TCM symptom: Mild, percentage of patients (6 months after treatment): (73.11%)
- distribution of total score of TCM symptom: Severe, number of patients (6 months after treatment): 7
- distribution of total score of TCM symptom: Severe, percentage of patients (6 months after treatment): (0.49%)
- fatigue score 0, % of patients (6 months after treatment): (31.00%)
- fatigue score 0, number of patients (6 months after treatment): 443
- fatigue score 2, % of patients (6 months after treatment): (61.65%)
- fatigue score 2, number of patients (6 months after treatment): 881
- fatigue score 4, % of patients (6 months after treatment): (6.79%)
- fatigue score 4, number of patients (6 months after treatment): 97
- fatigue score 6, % of patients (6 months after treatment): (0.56%)
- fatigue score 6, number of patients (6 months after treatment): 8
- pale complexion score 0, number of patients (6 months after treatment): 750
- pale complexion score 0, percent of patients (6 months after treatment): (52.48%)
- pale complexion score 1, number of patients (6 months after treatment): 540
- pale complexion score 1, percent of patients (6 months after treatment): (37.79%)
- pale complexion score 2, number of patients (6 months after treatment): 133
- pale complexion score 2, percent of patients (6 months after treatment): (9.31%)
- pale complexion score 3, number of patients (6 months after treatment): 6
- pale complexion score 3, percent of patients (6 months after treatment): (0.42%)
- palpitation score 0, number of patients (6 months after treatment): 456
- palpitation score 0, percent of patients (6 months after treatment): (31.91%)
- palpitation score 2, number of patients (6 months after treatment): 764
- palpitation score 2, percent of patients (6 months after treatment): (53.46%)
- palpitation score 4, number of patients (6 months after treatment): 192
- palpitation score 4, percent of patients (6 months after treatment): (13.44%)
- palpitation score 6, number of patients (6 months after treatment): 17
- palpitation score 6, percent of patients (6 months after treatment): (1.19%)
- short breath score 0, % of patients (6 months after treatment): (25.21%)
- short breath score 0, number of patients (6 months after treatment): 360
- short breath score 2, % of patients (6 months after treatment): (0.07%)
- short breath score 2, number of patients (6 months after treatment): 1
- short breath score 3, % of patients (6 months after treatment): (58.68%)
- short breath score 3, number of patients (6 months after treatment): 838
- short breath score 6, % of patients (6 months after treatment): (15.55%)
- short breath score 6, number of patients (6 months after treatment): 222
- short breath score 9, % of patients (6 months after treatment): (0.49%)
- short breath score 9, number of patients (6 months after treatment): 7
- spontaneous perspiration score 0, number of patients (6 months after treatment): 628
- spontaneous perspiration score 0, percent of patients (6 months after treatment): (43.98%)
- spontaneous perspiration score 1, number of patients (6 months after treatment): 676
- spontaneous perspiration score 1, percent of patients (6 months after treatment): (47.34%)
- spontaneous perspiration score 2, number of patients (6 months after treatment): 117
- spontaneous perspiration score 2, percent of patients (6 months after treatment): (8.19%)
- spontaneous perspiration score 3, number of patients (6 months after treatment): 7
- spontaneous perspiration score 3, percent of patients (6 months after treatment): (0.49%)
- total score of TCM symptom, Max (6 months after treatment): 34.00
- total score of TCM symptom, Md (6 months after treatment): 9.00
- total score of TCM symptom, Mean (6 months after treatment): 9.79
- total score of TCM symptom, Min (6 months after treatment): 0.00
- change of fatigue 0, % of patients [2]: (55.47%)
- change of fatigue 0, number of patients [2]: 791
- change of fatigue 2, % of patients [2]: (30.01%)
- change of fatigue 2, number of patients [2]: 428
- change of fatigue 4, % of patients [2]: (6.80%)
- change of fatigue 4, number of patients [2]: 97
- change of fatigue 6, % of patients [2]: (1.12%)
- change of fatigue 6, number of patients [2]: 16
- change of fatigue −2, % of patients [2]: (6.03%)
- change of fatigue −2, number of patients [2]: 86
- change of fatigue −4, % of patients [2]: (0.56%)
- change of fatigue −4, number of patients [2]: 8
- change of fatigue −6, % of patients [2]: (0.00%)
- change of fatigue −6, number of patients [2]: 0
- change of pale complexion 0, number of patients [2]: 1104
- change of pale complexion 0, percent of patients [2]: (77.47%)
- change of pale complexion 1, number of patients [2]: 272
- change of pale complexion 1, percent of patients [2]: (19.09%)
- change of pale complexion −1, number of patients [2]: 49
- change of pale complexion −1, percent of patients [2]: (3.44%)
- change of palpitation 0, number of patients [2]: 842
- change of palpitation 0, percent of patients [2]: (59.09%)
- change of palpitation 1, number of patients [2]: 431
- change of palpitation 1, percent of patients [2]: (30.25%)
- change of palpitation 2, number of patients [2]: 53
- change of palpitation 2, percent of patients [2]: (3.72%)
- change of palpitation 3, number of patients [2]: 7
- change of palpitation 3, percent of patients [2]: (0.49%)
- change of palpitation −1, number of patients [2]: 88
- change of palpitation −1, percent of patients [2]: (6.18%)
- change of palpitation −2, number of patients [2]: 4
- change of palpitation −2, percent of patients [2]: (0.28%)
- change of short breath 0, % of patients [2]: (63.53%)
- change of short breath 0, number of patients [2]: 906
- change of short breath 2, % of patients [2]: (27.14%)
- change of short breath 2, number of patients [2]: 387
- change of short breath 4, % of patients [2]: (3.16%)
- change of short breath 4, number of patients [2]: 45
- change of short breath 6, % of patients [2]: (0.56%)
- change of short breath 6, number of patients [2]: 8
- change of short breath −2, % of patients [2]: (5.33%)
- change of short breath −2, number of patients [2]: 76
- change of short breath −4, % of patients [2]: (0.14%)
- change of short breath −4, number of patients [2]: 2
- change of short breath −6, % of patients [2]: (0.14%)
- change of short breath −6, number of patients [2]: 2
